From PubChem BioAssay (NCI)
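Five compound concentrations were applied to cells in 96-well plates for 48 hours; endpoints were derived by simple linear interpolation of the resulting dose-response curve. GI50 = concentration required for 50% inhibition of growth. Definition used: TGI = concentration required for complete inhibition of growth.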

Key:
Experiment in all cases: inhibition of tumour cell growth, NCI panel, 48 h
[1] = test system: NCI-H23 lung
[2] = test system: T-47D breast
[3] = test system: DU-145 prostate
[4] = test system: HOP-62 NSCLC
[5] = test system: SF-268 CNS
[6] = test system: RXF 393 renal
[7] = test system: LOX IMVI melanoma
[8] = test system: KM12 colon
[9] = test system: SF-295 CNS
[10] = test system: HCC-2998 colon

SMILES | GI50 [1] | TGI [1] | GI50 [2] | TGI [2] | GI50 [3] | TGI [3] | GI50 [4] | TGI [4] | GI50 [5] | TGI [5] | GI50 [6] | TGI [6] | GI50 [7] | TGI [7] | GI50 [8] | TGI [8] | GI50 [9] | TGI [9] | TGI [10] | GI50 [10]
O=[N+]([O-])/C=C\c1ccc(Cl)c(Cl)c1 | 1.63 µM | 3.31 µM | 2.82 µM | 13.9 µM | 1.81 µM | 4.15 µM | 2.88 µM | 9.57 µM | 2.42 µM | 6.97 µM | 1.68 µM | 3.11 µM | 0.412 µM | 1.73 µM | 2.08 µM | 4.56 µM | 1.83 µM | 3.73 µM |  | 
O=C1C=CC(=Nc2ccc3c(c2)C(Br)c2ccccc2-3)O1 (configuration not stated) |  | > 100 µM |  |  |  |  |  | > 100 µM |  | > 100 µM |  | > 100 µM |  | > 100 µM |  |  |  | > 100 µM | > 100 µM | 
CC1=C(C(=O)Nc2ccc([N+](=O)[O-])cc2)C(c2ccc(N(C)C)cc2)C(C(=O)Nc2ccc([N+](=O)[O-])cc2)=C(C)N1 |  | 52.8 µM |  |  |  |  |  | 27.5 µM |  | 96.1 µM |  | 30.9 µM |  | 23.5 µM |  | 37 µM |  | 74.6 µM | 25.8 µM | 
COc1ccc(OC)c(NC(=O)C(=O)C(C(C)=O)c2nc3ccc(Cl)cc3[nH]c2=O)c1 (configuration not stated) |  | > 50 µM |  |  |  |  |  | > 50 µM |  | > 50 µM |  | > 50 µM |  | > 50 µM |  | > 50 µM |  | > 50 µM | > 50 µM | 
Clc1ccc(C2N3CCCCC3[C@@H]3c4[nH]c5ccccc5c4CCN23)cc1 (some centres not stated) |  | > 100 µM |  |  |  |  |  | > 100 µM |  | > 100 µM |  | 78.7 µM |  |  |  |  |  | > 100 µM | > 100 µM | 
CC12CC[C@@H](C(C)(C)O)C1[C@@H](O)CC1(C)C2CCC2[C@@]3(C)CC[C@H](O)C(C)(C)C3C(O)C[C@]21C (some centres not stated) |  | 39.2 µM |  |  |  |  |  |  |  | 39.7 µM |  | 23.5 µM |  |  |  | 38.1 µM |  | 37 µM | 36.2 µM | 
CCCCCCCCCCCCCC(=O)OC1CC(=O)OC1CO (configuration not stated) |  |  |  |  |  |  |  | > 100 µM |  | > 100 µM |  | > 100 µM |  | 73.5 µM |  | 56.7 µM |  | 45.5 µM | > 100 µM | 
O=C(N/N=C/c1ccccc1O)c1cccc([N+](=O)[O-])c1 |  | > 95.5 µM |  |  |  |  |  |  |  | > 100 µM |  | > 88.9 µM |  | > 81.4 µM |  | > 100 µM |  | 68.3 µM | > 100 µM | 
N#CC(C(=N/O)/C(=N/O)C(C#N)c1ccc(Cl)cc1)c1ccc(Cl)cc1 (configuration not stated) |  | > 100 µM |  |  |  |  |  | > 100 µM |  | > 100 µM |  | 98.7 µM |  | > 100 µM |  | > 100 µM |  | > 100 µM | > 100 µM | 
CCN(CC)c1c(C(=O)/C=C/c2ccccc2)c(-c2ccccc2)nn(C)c1=O |  |  |  |  |  |  |  | > 100 µM |  | > 100 µM |  | > 100 µM |  | 35.9 µM |  | > 100 µM |  | > 100 µM |  | 
OCCC1(O)CCC(O)CC1 (configuration not stated) |  | > 100 µM |  |  |  |  |  | > 100 µM |  | > 100 µM |  |  |  | > 100 µM |  | > 100 µM |  | > 100 µM | > 100 µM | 
CC1(C)CC(/C=C2/OC(=O)c3ccccc32)=C(C#N)C(=O)O1 |  | > 100 µM |  |  |  |  |  | > 100 µM |  | > 100 µM |  |  |  | > 100 µM |  | > 100 µM |  | > 100 µM | > 100 µM | 
Cc1ccc(S(=O)(=O)C(CC(=O)N2CCCC2)C(=O)c2ccccc2)cc1 (configuration not stated) |  | > 100 µM |  |  |  |  |  | > 100 µM |  | > 100 µM |  | > 100 µM |  | > 100 µM |  | > 100 µM |  | > 100 µM | > 100 µM | 
Cc1ccc(C)c(NC(=O)CC/C(=N\NC(=O)C(=O)NN)C(C)C(=O)c2ccc(O)cc2)c1 (configuration not stated) |  | > 100 µM |  |  |  |  |  | > 100 µM |  | > 100 µM |  | > 100 µM |  | > 100 µM |  | > 100 µM |  | > 100 µM | > 100 µM | 
COC1C(CN[N+](=O)CC2OC3OC(C)(C)OC3C2OC)OC2OC(C)(C)OC21 (configuration not stated) |  | > 100 µM |  |  |  |  |  | > 100 µM |  | > 100 µM |  | > 100 µM |  | > 100 µM |  | > 100 µM |  | > 100 µM | > 100 µM | 
CCCCCCCCCCCC(=O)CC(=O)c1c(O)cccc1O |  | 41.9 µM |  |  |  |  |  | 48.9 µM |  | 33 µM |  | 34.5 µM |  | 32 µM |  | 31.2 µM |  | 34.8 µM | 82.9 µM | 
Cc1ccc(-c2c3c([nH]c(=O)c2C#N)-c2cc(F)ccc2OC3)cc1 |  |  | 80.4 µM | > 100 µM | > 100 µM | > 100 µM |  |  |  |  | > 100 µM | > 100 µM | > 100 µM | > 100 µM | 36.1 µM | > 100 µM | 23.9 µM | 76.6 µM |  | 
CCCCNC1=C(C(=O)OCC)C(=O)CO1 |  | > 100 µM |  |  |  |  |  | > 100 µM |  | > 100 µM |  | > 100 µM |  | > 100 µM |  | > 100 µM |  | > 100 µM | > 100 µM | 
CCOC(=O)NC(=O)c1cn(C2OC(COC(=O)CCCCCCCCC(=O)OCC3OC(n4cc(C(=O)NC(=O)OCC)c(=O)[nH]c4=O)C(O)C3O)C(O)C2O)c(=O)[nH]c1=O (configuration not stated) |  | > 100 µM |  |  |  |  |  | > 100 µM |  | > 100 µM |  | > 100 µM |  | > 100 µM |  | > 100 µM |  | > 100 µM | > 100 µM | 
N=C1CSC2=NC3=C(CCC/C3=C\c3ccccc3)C(c3ccccc3)N12 (configuration not stated) |  | 15.6 µM |  |  |  |  |  | 25.6 µM |  | 32.9 µM |  | 17.4 µM |  | 4.96 µM |  | 13 µM |  | 19.4 µM | 10.6 µM | 
CSc1cc(N=Nc2nc3ccccc3s2)c2ccccc2c1O | 10.5 µM | 27.9 µM | 3.64 µM | > 50 µM | 9.16 µM | 16.9 µM | 10.2 µM | 20 µM | 7.87 µM | 17.4 µM | 5.99 µM | 14.3 µM | 5.97 µM | 12.7 µM | 5.35 µM | 28.7 µM | 11.5 µM | 27.6 µM |  | 
CN(C(=O)C12C3C4C1C1C2C3C41C(=O)C(C)(C)C)C(C)(C)C (configuration not stated) |  | > 100 µM |  |  |  |  |  | > 100 µM |  | > 100 µM |  |  |  | > 100 µM |  | > 100 µM |  | > 100 µM | > 100 µM | 
CC(C)CC(=O)[O-].CC(C)CC(=O)[O-].N.N.N.N.[Co+3].[O-][Cl+3]([O-])([O-])[O-] | > 100 µM | > 100 µM |  |  |  |  | > 100 µM | > 100 µM | > 100 µM | > 100 µM |  |  | > 100 µM | > 100 µM | > 100 µM | > 100 µM | > 100 µM | > 100 µM | > 100 µM | > 100 µM
